Tests used:
AOX = conditions: cited from earlier work; for effect on AOX transcription / effect on branched chain amino acid biosynthesis: Aubert et al. 1997
AOX1a promoter [1] = experiment: Luciferase expression in excised leaves of AOX1a promoter::luciferase transgenic lines, exposure to film; type: cell-based, Arabidopsis thaliana; conditions: for luciferase response to application: lines PZB-ALN 26 and 47
Procedure: Initial screening of the F1 plants was done by spraying excised leaves with 10 uM AA (FIG. 4A). The leaves were incubated for 4 hr in the light, then sprayed with luciferin, and exposed to autoradiographic film. […] Several pZB-ALN lines were used for imaging experiments employing a Hamamatsu photon-counting, CCD camera system (model C2400-75H).

Arabidopsis plants = experiment: Survival of Arabidopsis plants after treatment; type: in vivo
Procedure: In order for a screen involving application of antimycin A or sulfometuron methyl to succeed, plants must survive the screening procedure. […] Plants from line pZB-ALN 8 were used to produce the dose response curve shown in FIG. 6 were transferred to fresh growth plates (without antimycin A) after 36 h of antimycin A treatment. […] These plants remained green with healthy, expanded first true leaves and healthy roots and produced a normal-looking second set of true leaves.

AOX1a promoter [2] = experiment: Dose-response of AOXP-driven luciferase expression in seedlings, photon-counting CCD camera; type: in vivo, Arabidopsis thaliana; conditions: line pZB-ALN 8
Procedure: Seeds from these lines were sterilized and germinated on filter discs on standard growth agar in six-well plates and then grown at 20° C. and 66 uE of continuous light for 7 days (to eliminate the possibility of circadian rhythm effects). A Hamamatsu CCD camera system was used to quantify the levels of AOXP-driven luciferase expression. […] Plants were imaged immediately following transfer to induction plates, then returned to the growth chamber under 66 uE continuous light and 20° C.

COc1nc(C)nc(NC(=O)NS(=O)(=O)c2ccccc2Cl)n1 [chlorsulfuron]
effect on AOX transcription (AOX): increase in AOX transcription | effect on branched chain amino acid biosynthesis (AOX): inhibit branched chain amino acid biosynthesis

O=C(O)CC(O)(CC(=O)O)C(=O)O [citrate]
AOX mRNA accumulation (AOX; increase in amount of citrate in tobacco cells): accumulate | luciferase response to application (AOX1a promoter [1]): lower, but definite response

O=C(O)c1ccccc1O [salicylic acid]
AOX transcript accumulation (AOX; Sauromatum guttatum and tobacco): accumulate | luciferase response to application (AOX1a promoter [1]): lower, but definite response

COC(=O)c1ccccc1S(=O)(=O)NC(=O)Nc1nc(C)cc(C)n1 [sulfometuron methyl]
survival of plants after treatment (Arabidopsis plants; wild-type Arabidopsis plants sprayed with 5 uM or 5 nM): survive treatment | effect on AOX transcription (AOX): increase in AOX transcription | effect on branched chain amino acid biosynthesis (AOX): inhibit branched chain amino acid biosynthesis | luciferase expression (AOX1a promoter [1]; 5 nM, 24 h following treatment, some of the lines): higher luciferase expression

antimycin A
survival of plants after treatment (Arabidopsis plants; line pZB-ALN 8, 0.1, 1.0, 10, 100 and 1000 uM, 36 h treatment, six days after treatment): survived without any apparent developmental alterations | effect on AOX protein and transcript (AOX; petunia cells, tobacco, Hensenula anomala): increases in AOX protein and transcript | luciferase expression versus untreated control leaves (AOX1a promoter [1]; 10 uM, 4 h after treatment, excised leaves, pZB-ALN and pZP-ALE lines, qualitative): higher luciferase expression | peak induction of luciferase expression over the negative control (AOX1a promoter [2]; 1.0 mM or 100 uM): about 17 fold | time after transfer until which peak induction level is kept (AOX1a promoter [2]; 1.0 mM or 100 uM): at least 10 h | time of peak induction after application (AOX1a promoter [2]; 1.0 mM or 100 uM): about 6 h | lowest concentration giving measurable induction (AOX1a promoter [2]): 0.1 µM

Source: US6525245B1, “Method for identifying components involved in signal transduction pathways in higher plants” (The Board of Regents of the University of Nebraska, priority 1999, dated 2003)
